US20080221134A1, “8-ALKYNYLXANTHINES AND DERIVATIVES” (priority 2006, published 2008)

Assays:
[1] = test system: Reserpine induced catalepsy; assay: Acute Reserpine induced catalepsy test; format: in vivo, rat; conditions: vs only Reserpine-treated animals
Description: (§1) Animals were administered with Reserpine or CGS-21680 according to methods known to the skilled person in the art. These models and procedures are e.g. described by Ferré S. et al., Neurosci. Let., 1991, 130, 162; Ferré S. et al., Neuroscience, 1992, 51, 501; Kafka S. H. et al., Eur. J. Pharmacol., 1996, 295, 147; Rimondini R. et al., Neuropsychopharmacology, 1997, 17, 82 and are herein incorporated by reference. In the acute CGS-21680 induced catalepsy model (CGS model) the test compounds (TC, compounds according to the present invention) and CGS-21680 (i.p. 2 mg/kg) were administered 60 minutes before the start of the catalepsy bar measurement and behavioural testing described below (see also FIG. 1). In the acute Reserpine induced catalepsy model (RES model Resperine (subcutaneously, 3 mg/kg) was injected 24 h prior to the test compound application. Catalepsy bar measurement took place 60 minutes after test compound application (see FIG. 1). Test compounds were administered i.p. in DMSO in following doses (mg/kg): 0.1, 0.3, 1, 3, 10.
(§2) Dimethylsulfoxide (DMSO) was used as vehicle for the test compounds and Reserpine. Reserpine was dissolved in DMSO in a concentration of 3 mg/ml. A 10% (w/v) Cyclodextrin solution was used as vehicle for CGS-21680. CGS 21680 was dissolved in 10% (w/v) Cyclodextrine in a concentration of 2 mg/ml.
Apomorphine was used as a reference compound in the Reserpine induced catalepsy model. Apomorphine injection solution was diluted with purified water to a concentration of 0.3 mg/ml. The solution was administered subcutaneously (s.c.) in a volume of 1 ml/kg (0.3 mg/kg) 20 minutes before the begin of testing after Reserpine pre-treatment (25 hours prior to testing).
The catalepsy bar after Reserpine administration was measured (CAT) as follows: The rat was placed with its forepaws on a log of wood. […] The animal was tested for three trials and the time for each trial was noted. The following parameters were calculated: maximum time to descend (s) and median time to descend (s). […]
(§3) All statistical tests were performed two tailed with a value of p<0.05 considered as significant.
(§4) To assess the effects of CGS-21680 and Reserpine pre-treatment compared to vehicle treated controls statistical comparisons between the test groups were performed using a U test statistic.
To assess the effects of test compounds on CGS-21680 and Reserpine pre-treated animals correlation analyses including animals from test groups and the respective test compound-treated groups were performed.
Additionally, parametric and non-parametric comparisons for the median catalepsy measure were performed to assess the reliability of the method. In case of parametric testing a GLM analyses was performed including animals from a control group (only vehicle treated animals) and the respective test compound-treated groups with dose as a categorical factor. In case of a significant result, a Dunnett's post hoc test was performed between the according test compound groups and a control group as reference group. In case of non-parametric testing a Kruskal-Wallis H-test was performed including animals from a control group and the respective test compound groups. In case of a significant result single U-test comparisons were performed between a control group and the groups treated with different doses of the test compound.

[2] = target: T1, A2A adenosine receptors from rat striatum (Rattus norvegicus, UniProt P30543); assay: Sodium chloride-shift experiment; format: binding; conditions: for Sodium Chloride-Shift Ki (+NaCl)/Ki (−NaCl): ratio
T1 construct: A2A adenosine receptors from rat striatum; from tissue; host or cells: rat striatum
T1 sequence (P30543 whole entry): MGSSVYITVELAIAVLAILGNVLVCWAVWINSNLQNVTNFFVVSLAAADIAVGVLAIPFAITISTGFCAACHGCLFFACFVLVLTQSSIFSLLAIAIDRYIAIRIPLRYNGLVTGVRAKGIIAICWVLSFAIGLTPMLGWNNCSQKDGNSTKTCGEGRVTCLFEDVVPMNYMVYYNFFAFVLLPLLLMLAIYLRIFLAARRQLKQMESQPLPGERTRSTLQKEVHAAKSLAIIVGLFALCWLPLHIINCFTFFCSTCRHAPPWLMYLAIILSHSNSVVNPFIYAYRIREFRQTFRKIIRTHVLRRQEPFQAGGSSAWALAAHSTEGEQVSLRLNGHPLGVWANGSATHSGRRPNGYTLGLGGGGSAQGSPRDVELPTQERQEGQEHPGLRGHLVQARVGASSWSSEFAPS
Description: The compounds were tested in a sodium chloride-shift experiment of whether they are functionally coupled to A2A adenosine receptors from rat striatum. […] The presence of a relatively high concentration of sodium chloride should not influence the affinity of the antagonists. However, the affinity of A2A AR agonists should be attenuated and therefore lead to an elevated IC50-value. […] This confirms the A2A-antagonistic function of the compounds. (Gao et al, Biochem. Pharmacol., 2000, 60, 669, herein incorporated by reference).

Adenosine A2A = Adenosine A2A (Homo sapiens, UniProt P29274); assay: Functional assay (luciferase reporter), inhibition of A2A adenosine receptor; format: cell-based; design: expressed in transfected cells; host or cells: CHO-DUKX-CRE-A2A-19 (CHO-DUKX, vector pCineo); conditions: for IC50: CHO-DUKX-CRE-A2A-19 cells, 60 nM NECA, read-out: A2A AR IC50; for A2A AR Imax: Imax in % of the corresponding antagonist; for Ki: Ki=IC50/(1+agonist concentration/EC50), read-out: A2A AR Ki
Adenosine A2A, sequence (P29274 whole entry): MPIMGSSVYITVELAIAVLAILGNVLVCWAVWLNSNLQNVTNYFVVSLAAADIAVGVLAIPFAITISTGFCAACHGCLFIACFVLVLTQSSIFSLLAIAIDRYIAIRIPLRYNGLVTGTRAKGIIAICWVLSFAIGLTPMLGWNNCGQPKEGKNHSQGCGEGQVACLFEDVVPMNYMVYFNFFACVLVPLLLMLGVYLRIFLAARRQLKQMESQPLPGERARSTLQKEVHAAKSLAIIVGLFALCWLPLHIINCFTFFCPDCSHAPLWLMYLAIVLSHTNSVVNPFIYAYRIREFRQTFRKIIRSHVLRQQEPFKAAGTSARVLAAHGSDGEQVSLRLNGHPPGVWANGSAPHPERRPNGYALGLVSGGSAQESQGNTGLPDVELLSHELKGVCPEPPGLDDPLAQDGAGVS

Adenosine A1 = target: T2, Adenosine A1 (Homo sapiens, UniProt P30542); assay: Functional assay (luciferase reporter), inhibition of A1 adenosine receptor; format: cell-based; design: expressed in transfected cells; host or cells: CHO-DUKX-SRE-Luci-A1-44 (CHO-DUKX, vector pCineo); conditions: for IC50: CHO-DUKX-SRE-Luci-A1-44 cells, 3.5 μM ADAC, read-out: A1 AR IC50; for A1 AR Imax: Imax in % of the corresponding antagonist (CPX); for Ki: Ki=IC50/(1+agonist concentration/EC50), read-out: A1 AR Ki
T2 sequence (P30542 1-326): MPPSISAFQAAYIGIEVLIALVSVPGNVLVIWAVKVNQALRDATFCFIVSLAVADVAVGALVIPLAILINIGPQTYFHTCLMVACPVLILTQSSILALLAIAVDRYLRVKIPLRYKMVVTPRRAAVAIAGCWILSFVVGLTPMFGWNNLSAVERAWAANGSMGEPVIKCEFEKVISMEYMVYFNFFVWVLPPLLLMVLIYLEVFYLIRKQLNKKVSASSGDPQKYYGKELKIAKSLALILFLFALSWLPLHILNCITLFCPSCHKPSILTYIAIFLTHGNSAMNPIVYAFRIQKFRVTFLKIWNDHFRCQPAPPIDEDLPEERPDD

[3] = test system: CGS-21680 induced catalepsy; assay: Acute CGS-21680 induced catalepsy test; format: in vivo, rat; conditions: vs only CGS-21680-treated animals
Description: as §1, §2
Caffeine was used as a reference compound in the CGS-21680 induced catalepsy model. A caffeine solution was prepared with water for injection purposes to a concentration of 30 mg/ml. The solution was administered intraperitoneally in a volume of 1 ml/kg (30 mg/kg) 30 minutes before the beginning of testing and after CGS-21680 pre-treatment (1 hour prior to testing).
The catalepsy bar after CGS-21680 administration was measured (CAT) as follows: The rat was placed with its forepaws on a log of wood. […] If the animal descended faster than 1 second, the trial was regarded as invalid. If more than 20 trials were rated as invalid, the values of all uncompleted trials were noted as 0. The animal was tested until five trials had been completed and the time for each trial was noted. Only the values of the last three trials were used for the analysis. The following parameters were calculated: maximum time to descend (s) and median time to descend (s).
Behavioural observation (BO) included the measurement of the body tone, inclined plane and grip strength.
The rat is taken in the hand of the observer and the animal's body tone is rated as normal, soft or hard. The rating is performed immediately after taking the animal from its home cage before performance of catalepsy testing. The following parameters were calculated: mean occurrence of hard body tone and mean occurrence of soft body tone.
The rat is horizontally placed to an inclined plane for a maximum time of 30 seconds. Time to reach bottom or top is measured. […] The test is performed after catalepsy testing. Time to leave the inclined plane(s) was measured.
The rat is put on a grip and the observer pulls the animal back on his tail. The strength (fore paws and hind paws) by which it holds on the grid is scored as grasping and pulling, grasping without pulling or no grasping. The test is performed after the inclined plane test. The following parameters were calculated: mean score of fore paw grip strength and mean score of hind paw grip strength.
as §3, §4
To assess the effects of test compounds on CGS-21680 and Reserpine pre-treated animals correlation analyses including animals from test groups and the respective test compound-treated groups were performed. […]

[4] = Ki (+100 mM NaCl) rA2A rat striatum [3H] MSX-2 (n = 3), +100 mM NaCl
[5] = Ki rA2A rat striatum [3H] MSX-2 (n = 3), without NaCl

SMILES	Ki [2, 4] [µM]	Ki [2, 5] [µM]	Sodium Chloride-Shift Ki (+NaCl)/Ki (−NaCl) [2]	IC50 (Adenosine A2A) [µM]	A2A AR Imax (Adenosine A2A) [%]	Ki (Adenosine A2A) [µM]	IC50 (Adenosine A1) [µM]	A1 AR Imax (Adenosine A1) [%]	Ki (Adenosine A1) [µM]	other results
CN1CCc2cccc3c2[C@H]1Cc1ccc(O)c(O)c1-3 [apomorphine, Apomorphine, reference compound]										maximum catalepsy values after Reserpine treatment [1]: decreased; median catalepsy values after Reserpine treatment [1]: decreased
C#CCn1c(=O)c2c(nc(C#Cc3cccc(OC)c3)n2C)n(C)c1=O [drawing 614]	0.0332 ± 0.0099	0.0309 ± 0.008	0.97 ± 0.03							
C#CCn1c(=O)c2c(nc(C#Cc3ccc(OC)c(OC)c3)n2C)n(CCCO)c1=O [drawing 622]				0.3	117	0.026	1.8	92	0.401	
C#CCn1c(=O)c2c(nc(C#Cc3cccc(Cl)c3)n2C)n(C)c1=O [drawing 616]	0.0395 ± 0.0131	0.046 ± 0.009	0.82 ± 0.13							
C#CCn1c(=O)c2c(nc(C#Cc3cccc(C)c3)n2C)n(CCCO)c1=O [drawing 623]				0.4	109	0.04	1.3	102	0.289	
C#CCn1c(=O)c2c(nc(C#Cc3cccc(OC)c3)n2C)n(CCCO)c1=O [drawing 620]				0.9	117	0.082	1.7	90	0.37	
C#CCn1c(=O)c2c(nc(C#Cc3cccc(OC)c3)n2CC#C)n(C)c1=O [drawing 621]				0.5	86	0.047	2.3	55	0.501	
C#CCn1c(=O)c2c(nc(C#Cc3cccc(C)c3)n2C)n(C)c1=O [drawing 615]	0.0531 ± 0.0059	0.0434 ± 0.0116	1.19 ± 0.16							
Cn1c(=O)c2c(ncn2C)n(C)c1=O [caffeine, 1,3,7-trimethylxanthine, reference compound]										hard body tone after CGS-21680 treatment [3]: increased; maximum catalepsy values after CGS-21680 treatment [3]: significantly decreased; median catalepsy values after CGS-21680 treatment [3]: significantly decreased; soft body tone after CGS-21680 treatment [3]: decreased
